The record followed here is paper PMC11602115 (Journal of Medicinal Chemistry, 2017).

In one data set the test system is human platelet. The experiment in a line: Inhibition of ADP-induced human platelet aggregation. The format is cell-based. The settings on record: aggregation induced by 2.5 μM ADP, mean of at least two determinations. Here is the method: Such aggregated and activated platelets produce vasoactive substances such as thromboxane and serotonin that may cause harmful vasoconstriction and vascular remodeling.[13] […] This secondary assay was carried out as previously described,[14] with aggregation induced by 2.5 μM ADP in the presence or absence of IP receptor agonists.

Another data set deals with rat IP (Rattus norvegicus, UniProt P43253). The experiment in a line: HTRF cAMP assay, recombinant rat IP receptor. More on the design: expressed in transfected cells. In kind it is cell-based. The settings on record: for EC50: HTRF (cAMP) rat IP receptor assay, mean of at least three determinations; for Emax: read-out: rIP % IA. As for the experimental part: (§1) The new compounds were tested for functional agonist activity in a standard (Cisbio) cAMP assay using recombinant IP or DP1 receptors stably expressed in CHO-K1 cells. Clonal cell lines were derived following standard protocols, but receptor expression levels were kept to a minimum to preclude receptor reserve effects.
Sequence of rat IP (P43253 whole entry): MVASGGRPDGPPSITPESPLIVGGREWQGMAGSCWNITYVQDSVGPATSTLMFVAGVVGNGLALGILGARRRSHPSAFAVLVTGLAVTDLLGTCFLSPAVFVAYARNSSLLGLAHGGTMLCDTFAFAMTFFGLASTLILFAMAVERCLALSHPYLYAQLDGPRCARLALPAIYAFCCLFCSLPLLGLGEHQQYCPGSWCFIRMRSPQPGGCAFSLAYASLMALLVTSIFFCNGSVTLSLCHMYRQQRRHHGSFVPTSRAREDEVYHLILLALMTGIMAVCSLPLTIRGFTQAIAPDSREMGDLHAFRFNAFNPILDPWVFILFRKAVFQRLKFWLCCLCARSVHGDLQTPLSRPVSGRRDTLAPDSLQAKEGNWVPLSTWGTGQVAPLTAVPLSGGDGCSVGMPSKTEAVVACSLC
(§2) For development of cAMP accumulation assays, recombinant IP or DP1 receptors were stably expressed in CHO-K1 cells and clonal cell lines derived following standard protocols. Receptor expression levels were minimized to preclude receptor reserve effects. HTRF cAMP assays were performed according to the manufacturer’s instructions (Cisbio, cAMP Dynamic 2 assay kit; no. 62AM4PEJ). IP receptor-expressing cells were harvested, resuspended in assay buffer (PBS containing 1 mM IBMX and 0.2% BSA) at a density of 200 000 cells per mL, and dispensed into 384-well assay plates (PerkinElmer Proxiplate no. 6008280) at 5 μL per well. Test compounds were solubilized and serially diluted in DMSO using 5-fold dilutions to generate a 10-point dose–response curve with a top concentration of 10 μM. The samples were then further diluted in PBS to achieve a 2× stock. Diluted compounds were then transferred to a triplicate set of assay plates (5 μL per well). After a 1 h incubation at room temperature, 5 μL of cAMP-D2 reagent diluted in lysis buffer was added to each well followed by 5 μL of cryptate reagent. Plates were then incubated at room temperature for 1 h prior to reading. Time-resolved fluorescence measurements were collected on PerkinElmer Envision or BMG Pherastar microplate readers.
A general note: Time-resolved FRET reads energy transfer from a long-lived donor to a nearby acceptor.

For the next data set, the target named is IP (Homo sapiens, UniProt P43119). As to the kind of experiment: HTRF cAMP assay, recombinant human IP receptor stably expressed in CHO-K1 cells. More on the design: expressed in transfected cells. In kind it is cell-based. Here is the method:
as §1, §2

Another data set deals with T1, human DP1 receptor (Homo sapiens, UniProt Q13258).
T1 construct: expressed in transfected cells
T1 sequence (Q13258 1-359): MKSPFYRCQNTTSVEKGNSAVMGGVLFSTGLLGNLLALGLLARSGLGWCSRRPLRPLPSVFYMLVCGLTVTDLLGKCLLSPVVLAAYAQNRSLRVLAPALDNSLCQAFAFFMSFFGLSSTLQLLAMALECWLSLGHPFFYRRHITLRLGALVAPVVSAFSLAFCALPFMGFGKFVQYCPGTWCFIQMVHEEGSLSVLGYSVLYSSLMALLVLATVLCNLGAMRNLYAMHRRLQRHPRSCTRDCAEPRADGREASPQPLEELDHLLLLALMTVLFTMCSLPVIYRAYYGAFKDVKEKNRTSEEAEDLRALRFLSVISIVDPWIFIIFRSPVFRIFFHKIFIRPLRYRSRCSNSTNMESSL
The experiment in a line: HTRF cAMP assay, recombinant human DP1 receptor in CHO-K1 cells. The note with it: for Emax: CHO-K1, intrinsic activity relative to 1 μM PGD2, read-out: hDP1 % IA; for EC50: HTRF (cAMP) human DP1 receptor assay, mean of at least three determinations, read-out: EC50 hDP1. The format is cell-based. Here is the method: as §1, §2

Data set [1] can be described thus: Stability in human microsome preparations. The settings on record: incubation at 37 °C, human microsomes; read-out: human MS, T1/2. In kind it is in vitro ADME. The source says:
(§3) Table 1 Screening Data for Selected Analogues ^a | column: human and rat MS, T1/2 (min) ^g

A short description of data set [2]: Stability in rat microsome preparations. The settings on record: incubation at 37 °C, rat microsomes; read-out: rat MS, T1/2. In kind it is in vitro ADME.
Excerpt: as §3

Where [3] appears, read: HTRF (cAMP) human IP receptor assay; mean of at least three determinations.

Where two headings read alike, the source gives them in different places. Bounds are passed on as bounds.

Sequence of IP (P43119 whole entry): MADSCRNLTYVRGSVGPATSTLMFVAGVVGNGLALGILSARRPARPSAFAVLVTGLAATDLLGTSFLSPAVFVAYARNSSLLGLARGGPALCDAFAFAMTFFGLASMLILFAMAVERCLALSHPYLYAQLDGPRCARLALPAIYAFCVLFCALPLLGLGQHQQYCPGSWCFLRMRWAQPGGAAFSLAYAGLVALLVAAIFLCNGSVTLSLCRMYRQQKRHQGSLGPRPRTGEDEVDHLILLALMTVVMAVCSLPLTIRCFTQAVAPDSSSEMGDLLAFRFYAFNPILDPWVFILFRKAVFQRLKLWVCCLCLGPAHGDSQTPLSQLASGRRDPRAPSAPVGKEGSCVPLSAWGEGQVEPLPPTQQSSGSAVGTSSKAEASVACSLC

For orientation: IC50 means the midpoint of a concentration-inhibition curve. A lower IC50 goes with greater potency. The term EC50 denotes the concentration needed to bring the measured effect to its halfway point. `O=C(O)COC[C@H]1CC[C@@H](COC(=O)N(c2ccccc2)c2ccccc2)CC1` [5b, 2-(((1s,4s)-4-((Diphenylcarbamoyloxy)methyl)cyclohexyl)methoxy)acetic Acid]: the IC50 in the data set with human platelet is 54 nM. Moreover, the EC50 on rat IP was determined as 472 nM; at IP (setting [3]), 54 nM; on human DP1 receptor, 1710 nM. The results for the Emax at rat IP, on IP (CHO-K1; read-out: hIP % IA) and at human DP1 receptor were 94%, 81% and 68%, respectively.

As for `O=C(O)COC[C@H]1CC[C@@H](COC(=O)N(c2ccccc2)c2ccc(Cl)cc2)CC1` [5d, 2-(((1s,4s)-4-(((4-Chlorophenyl)(phenyl)carbamoyloxy)methyl)cyclohexyl)methoxy)acetic Acid], the EC50 on rat IP amounted to 560 nM; at human DP1 receptor, 980 nM. Further, the Emax on rat IP is 88%; at IP (CHO-K1, read-out: hIP % IA) it was 80%; at human DP1 receptor, 60%.

Consider `COc1ccc(N(C(=O)OC[C@H]2CC[C@@H](COCC(=O)O)CC2)c2ccccc2)cc1` [5f, 2-(((1s,4s)-4-(((4-Methoxyphenyl)(phenyl)carbamoyloxy)methyl)cyclohexyl)methoxy)acetic Acid], for which the EC50 on rat IP was over 10000 nM; on IP (setting [3]), 1630 nM. Further, the Emax on IP (CHO-K1; read-out: hIP % IA) amounted to 16%.

`O=C(O)COC[C@H]1CC[C@@H](COC(=O)N(c2ccccc2)c2cccc(F)c2)CC1` [5h, 2-(((1s,4s)-4-(((3-Fluorophenyl)(phenyl)carbamoyloxy)methyl)cyclohexyl)methoxy)acetic Acid]: in the data set on human platelet, the IC50 worked out at 93 nM. Besides, the EC50 was 561 nM on rat IP, 62 nM at IP (setting [3]) and 3870 nM at human DP1 receptor. Also, the Emax on rat IP stood at 88%; at IP (CHO-K1; read-out: hIP % IA) it was 79%; on human DP1 receptor, 61%.

With `O=C(O)COC[C@H]1CC[C@H](COC(=O)N(c2ccccc2)c2cccc(Cl)c2)CC1` [5i, 2-(((1r,4r)-4-(((3-Chlorophenyl)(phenyl)carbamoyloxy)methyl)cyclohexyl)methoxy)acetic Acid], the half-life in data set [1] and in data set [2] was over 1 h in each case. In addition, the 50% effective concentration (EC50) on rat IP was determined as 272 nM; on human DP1 receptor, 5070 nM. For the same compound, the figures for the Emax at rat IP, at IP (CHO-K1; read-out: hIP % IA) and at human DP1 receptor were 88%, 80% and 30%, respectively.

In turn, `Cc1ccc(N(C(=O)OC[C@H]2CC[C@H](COCC(=O)O)CC2)c2ccccc2)cc1` [5k, 2-(((1r,4r)-4-((Phenyl(p-tolyl)carbamoyloxy)methyl)cyclohexyl)methoxy)acetic Acid] returned an IC50 with human platelet of 39 nM. Also, the values for the EC50 at rat IP, at IP (setting [3]) and at human DP1 receptor were 174 nM, 3.9 nM and 320 nM, respectively. The Emax amounted to 99% on rat IP, 81% on IP (CHO-K1; read-out: hIP % IA) and 53% at human DP1 receptor.

Regarding `O=C(O)COC[C@H]1CC[C@H](COC(=O)N(c2ccccc2)c2ccc(F)c(Cl)c2)CC1` [5n, 2-(((1r,4r)-4-(((3-Chloro-4-fluorophenyl)(phenyl)carbamoyloxy)methyl)cyclohexyl)methoxy)acetic Acid], the half-life in data set [1] and in data set [2] was over 1 h throughout. In the data set on human platelet, the IC50 is 142 nM. For the same compound, the EC50 was 1330 nM at rat IP, 38 nM at IP (setting [3]) and over 10000 nM at human DP1 receptor. The results for the Emax on rat IP and at IP (CHO-K1; read-out: hIP % IA) were 102% and 79%, respectively.

Regarding `COc1ccc(N(C(=O)OC[C@H]2CC[C@H](COCC(=O)O)CC2)c2cccc(F)c2)cc1` [5p, 2-(((1r,4r)-4-(((3-Fluorophenyl)(4-methoxyphenyl)carbamoyloxy)methyl)cyclohexyl)methoxy)acetic Acid], it took 43 nM to reach half-maximal inhibition with human platelet (IC50). For the same compound, the 50% effective concentration (EC50) came out at 1570 nM at rat IP, 5.2 nM at IP (setting [3]) and 1030 nM on human DP1 receptor. In addition, the Emax on rat IP was 60%; at IP (CHO-K1; read-out: hIP % IA), 70%; on human DP1 receptor it was 65%.

Take `O=C(O)COC[C@H]1CC[C@H](COC(=O)N(c2ccc(Cl)cc2)c2cccc(F)c2)CC1` [5q, 2-(((1r,4r)-4-(((4-Chlorophenyl)(3-fluorophenyl)carbamoyloxy)methyl)cyclohexyl)methoxy)acetic Acid]: the half-life in data set [1] and in data set [2] was over 1 h in each case. Moreover, the EC50 at rat IP was determined as 3190 nM; at IP (setting [3]), 18.5 nM; at human DP1 receptor, 1140 nM. Also, the figures for the Emax on rat IP, at IP (CHO-K1; read-out: hIP % IA) and on human DP1 receptor were 44%, 70% and 35%, respectively.

In the case of `O=C(O)COC[C@H]1CC[C@H](COC(=O)N(c2ccc(F)cc2)c2ccc(F)cc2)CC1` [5r, 2-(((1r,4r)-4-((Bis(4-fluorophenyl)carbamoyloxy)methyl)cyclohexyl)methoxy)acetic Acid], the concentration giving a half-maximal response (EC50) was over 10000 nM on rat IP, 41 nM at IP (setting [3]) and 860 nM on human DP1 receptor. Further, the Emax on IP (CHO-K1; read-out: hIP % IA) stood at 65%; on human DP1 receptor, 45%.

In the case of `O=C(O)COC[C@H]1CC[C@H](COC(=O)N(c2ccc(F)cc2)c2cccc(F)c2)CC1` [5s, 2-(((1r,4r)-4-(((4-Fluorophenyl)(3-fluorophenyl)carbamoyloxy)methyl)cyclohexyl)methoxy)acetic Acid], the half-life in data set [1] and in data set [2] was over 1 h throughout. The compound further registered an IC50 in the data set with human platelet of 30 nM. Further, the EC50 at rat IP was determined as 1630 nM; at IP (setting [3]), 7.8 nM; at human DP1 receptor, 808 nM. Further, the values for the Emax on rat IP, on IP (CHO-K1; read-out: hIP % IA) and on human DP1 receptor were 54%, 76% and 57%, respectively.

For the compound `O=C(O)COC[C@H]1CC[C@H](COC(=O)N(c2cccc(F)c2)c2ccc(Cl)c(F)c2)CC1` [5t, 2-(((1r,4r)-4-(((4-Chloro-3-fluorophenyl)(3-fluorophenyl)carbamoyloxy)methyl)cyclohexyl)methoxy)acetic Acid], the half-life in data set [1] and in data set [2] was over 1 h each time. Further, the EC50 was 2720 nM on rat IP, 23 nM at IP (setting [3]) and over 10000 nM at human DP1 receptor. Further, the values for the Emax on rat IP and at IP (CHO-K1; read-out: hIP % IA) were 56% and 75%, respectively.

On to `O=C(O)COC[C@H]1CC[C@H](COC(=O)N(c2ccc(O)cc2)c2ccc(Cl)cc2)CC1` [M2], for which the Emax at IP (CHO-K1; read-out: hIP % IA) is 93%. Besides, the EC50 on IP (setting [3]) was found to be 25 nM.

Consider `O=C(COC[C@H]1CC[C@H](COC(=O)N(c2ccc(O)cc2)c2ccc(Cl)cc2)CC1)NCCS(=O)(=O)O` [M3], for which the Emax on IP (CHO-K1; read-out: hIP % IA) came to 78%. The EC50 on IP (setting [3]) is 1050 nM.

In the case of `CC(C)N(CCCCOCC(=O)NS(C)(=O)=O)c1cnc(-c2ccccc2)c(-c2ccccc2)n1` [compound 1, selexipag, reference compound], the half-life in data set [1] and in data set [2] was over 1 h each time. In the data set on human platelet, the midpoint of inhibition, the IC50, lay at 62 nM. In addition, the Emax at rat IP was 100%; on IP (CHO-K1; read-out: hIP % IA), 98%; on human DP1 receptor it was 48%.
